Source: PubChem BioAssay (NCI)
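1) Cells in 96-well plates. 2) Compound, 48 h, 5 concentrations. 3) Linear interpolation between surrounding doses. 4) Unreached endpoint = highest concentration. GI50 = concentration required for 50% inhibition of growth. At the TGI there is no net growth.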

Columns and labels:
Assay in all cases: NCI anticancer screen, dose series, 48 h
CAKI-1 renal = tested on: CAKI-1 renal
SK-MEL-5 melanoma = tested on: SK-MEL-5 melanoma
BT-549 breast = tested on: BT-549 breast
SNB-75 CNS = tested on: SNB-75 CNS
CCRF-CEM leukemia = tested on: CCRF-CEM leukemia
LOX IMVI melanoma = tested on: LOX IMVI melanoma
786-0 renal = tested on: 786-0 renal
KM12 colon = tested on: KM12 colon
HCC-2998 colon = tested on: HCC-2998 colon
A498 renal = tested on: A498 renal
NCI-H23 lung = tested on: NCI-H23 lung
M14 melanoma = tested on: M14 melanoma
HOP-92 NSCLC = tested on: HOP-92 NSCLC
MDA-MB-435 = tested on: MDA-MB-435
HCT-116 colon = tested on: HCT-116 colon
T-47D breast = tested on: T-47D breast
SF-539 CNS = tested on: SF-539 CNS
NCI/ADR-RES ovarian = tested on: NCI/ADR-RES ovarian
SN12C renal = tested on: SN12C renal
IGROV1 ovarian = tested on: IGROV1 ovarian
SF-268 CNS = tested on: SF-268 CNS
ACHN renal = tested on: ACHN renal
HCT-15 colon = tested on: HCT-15 colon
OVCAR-8 ovarian = tested on: OVCAR-8 ovarian
OVCAR-4 ovarian = tested on: OVCAR-4 ovarian
MDA-MB-231 breast = tested on: MDA-MB-231 breast
RPMI-8226 leukemia = tested on: RPMI-8226 leukemia
SK-OV-3 ovarian = tested on: SK-OV-3 ovarian
HT29 colon = tested on: HT29 colon
UACC-62 melanoma = tested on: UACC-62 melanoma
HL-60(TB) leukemia = tested on: HL-60(TB) leukemia
HOP-62 NSCLC = tested on: HOP-62 NSCLC
MCF7 breast = tested on: MCF7 breast
SF-295 CNS = tested on: SF-295 CNS
K-562 leukemia = tested on: K-562 leukemia
SK-MEL-2 melanoma = tested on: SK-MEL-2 melanoma
U251 CNS = tested on: U251 CNS
MALME-3M melanoma = tested on: MALME-3M melanoma
TK-10 renal = tested on: TK-10 renal
NCI-H226 lung = tested on: NCI-H226 lung
COLO 205 colon = tested on: COLO 205 colon
UACC-257 melanoma = tested on: UACC-257 melanoma
HS 578T breast = tested on: HS 578T breast
UO-31 renal = tested on: UO-31 renal
NCI-H460 lung = tested on: NCI-H460 lung
SW-620 colon = tested on: SW-620 colon
NCI-H522 lung = tested on: NCI-H522 lung
OVCAR-5 ovarian = tested on: OVCAR-5 ovarian
EKVX NSCLC = tested on: EKVX NSCLC
OVCAR-3 ovarian = tested on: OVCAR-3 ovarian
MOLT-4 leukemia = tested on: MOLT-4 leukemia
A549 NSCLC = tested on: A549 NSCLC
SNB-19 CNS = tested on: SNB-19 CNS
PC-3 prostate = tested on: PC-3 prostate
DU-145 prostate = tested on: DU-145 prostate
SK-MEL-28 melanoma = tested on: SK-MEL-28 melanoma
SR leukemia = tested on: SR leukemia

SMILES: C[C@H](Nc1ncnc2ccc(-c3cnc(Cl)c(NS(C)(=O)=O)c3)cc12)c1ccccc1
- GI50 (CAKI-1 renal): 1110 nM
- TGI (CAKI-1 renal): 8.21 µM
- GI50 (SK-MEL-5 melanoma): 1040 nM
- TGI (SK-MEL-5 melanoma): 2210 nM
- GI50 (BT-549 breast): 272 nM
- TGI (BT-549 breast): 2050 nM
- GI50 (SNB-75 CNS): 257 nM
- TGI (SNB-75 CNS): 4.83 µM
- GI50 (CCRF-CEM leukemia): 5.46 µM
- TGI (CCRF-CEM leukemia): > 100 µM
- GI50 (LOX IMVI melanoma): 344 nM
- TGI (LOX IMVI melanoma): 1890 nM
- GI50 (786-0 renal): 1140 nM
- TGI (786-0 renal): 7.48 µM
- GI50 (KM12 colon): 2300 nM
- TGI (KM12 colon): 11.8 µM
- GI50 (HCC-2998 colon): 924 nM
- TGI (HCC-2998 colon): 6.86 µM
- GI50 (A498 renal): 269 nM
- TGI (A498 renal): 2300 nM
- GI50 (NCI-H23 lung): 1070 nM
- TGI (NCI-H23 lung): 5.18 µM
- GI50 (M14 melanoma): 1570 nM
- TGI (M14 melanoma): 12.6 µM
- GI50 (HOP-92 NSCLC): 280 nM
- TGI (HOP-92 NSCLC): 4.84 µM
- GI50 (MDA-MB-435): 1270 nM
- TGI (MDA-MB-435): 10.7 µM
- GI50 (HCT-116 colon): 1680 nM
- TGI (HCT-116 colon): 6.12 µM
- GI50 (T-47D breast): 175 nM
- TGI (T-47D breast): 2410 nM
- GI50 (SF-539 CNS): 1130 nM
- TGI (SF-539 CNS): 3.87 µM
- GI50 (NCI/ADR-RES ovarian): 4.76 µM
- TGI (NCI/ADR-RES ovarian): 19.7 µM
- GI50 (SN12C renal): 773 nM
- TGI (SN12C renal): 27.8 µM
- GI50 (IGROV1 ovarian): 278 nM
- TGI (IGROV1 ovarian): 1500 nM
- GI50 (SF-268 CNS): 1110 nM
- TGI (SF-268 CNS): 10.4 µM
- GI50 (ACHN renal): 2180 nM
- TGI (ACHN renal): > 100 µM
- GI50 (HCT-15 colon): 766 nM
- TGI (HCT-15 colon): 11.2 µM
- GI50 (OVCAR-8 ovarian): 2270 nM
- TGI (OVCAR-8 ovarian): 16 µM
- GI50 (OVCAR-4 ovarian): 1580 nM
- TGI (OVCAR-4 ovarian): 11.7 µM
- GI50 (MDA-MB-231 breast): 1030 nM
- TGI (MDA-MB-231 breast): 2700 nM
- GI50 (RPMI-8226 leukemia): 4.29 µM
- TGI (RPMI-8226 leukemia): > 100 µM
- GI50 (SK-OV-3 ovarian): 1610 nM
- TGI (SK-OV-3 ovarian): 7.72 µM
- GI50 (HT29 colon): 2360 nM
- TGI (HT29 colon): 19.7 µM
- GI50 (UACC-62 melanoma): 379 nM
- TGI (UACC-62 melanoma): 2160 nM
- GI50 (HL-60(TB) leukemia): 9.47 µM
- TGI (HL-60(TB) leukemia): > 100 µM
- GI50 (HOP-62 NSCLC): 1300 nM
- TGI (HOP-62 NSCLC): 21 µM
- GI50 (MCF7 breast): 277 nM
- TGI (MCF7 breast): 10.6 µM
- GI50 (SF-295 CNS): 971 nM
- TGI (SF-295 CNS): 4.14 µM
- GI50 (K-562 leukemia): 7.97 µM
- TGI (K-562 leukemia): > 100 µM
- GI50 (SK-MEL-2 melanoma): 1520 nM
- TGI (SK-MEL-2 melanoma): 3.5 µM
- GI50 (U251 CNS): 1050 nM
- TGI (U251 CNS): 30.7 µM
- GI50 (MALME-3M melanoma): 242 nM
- TGI (MALME-3M melanoma): 1880 nM
- GI50 (TK-10 renal): 1910 nM
- TGI (TK-10 renal): 21.5 µM
- GI50 (NCI-H226 lung): 943 nM
- TGI (NCI-H226 lung): 8.41 µM
- GI50 (COLO 205 colon): 2290 nM
- TGI (COLO 205 colon): 7.61 µM
- GI50 (UACC-257 melanoma): 1970 nM
- TGI (UACC-257 melanoma): 13.4 µM
- GI50 (HS 578T breast): 199 nM
- TGI (HS 578T breast): 862 nM
- GI50 (UO-31 renal): 284 nM
- TGI (UO-31 renal): 4.85 µM
- GI50 (NCI-H460 lung): 1390 nM
- TGI (NCI-H460 lung): 13.5 µM
- GI50 (SW-620 colon): 2000 nM
- TGI (SW-620 colon): 11.3 µM
- GI50 (NCI-H522 lung): 2900 nM
- TGI (NCI-H522 lung): 19.4 µM
- GI50 (OVCAR-5 ovarian): 1370 nM
- TGI (OVCAR-5 ovarian): 11.4 µM
- GI50 (EKVX NSCLC): 1200 nM
- TGI (EKVX NSCLC): 4.36 µM
- GI50 (OVCAR-3 ovarian): 627 nM
- TGI (OVCAR-3 ovarian): 2940 nM
- GI50 (MOLT-4 leukemia): 4.33 µM
- TGI (MOLT-4 leukemia): > 100 µM
- GI50 (A549 NSCLC): 3.17 µM
- TGI (A549 NSCLC): 15.7 µM
- GI50 (SNB-19 CNS): 1180 nM
- TGI (SNB-19 CNS): 9.94 µM
- GI50 (PC-3 prostate): 806 nM
- TGI (PC-3 prostate): 37.1 µM
- GI50 (DU-145 prostate): 2730 nM
- TGI (DU-145 prostate): 28.4 µM
- GI50 (SK-MEL-28 melanoma): 491 nM
- TGI (SK-MEL-28 melanoma): 6.77 µM
- GI50 (SR leukemia): 2100 nM
- TGI (SR leukemia): > 100 µM
